Results on seven molecules are retold here after US20250179047A1, “5-[7-(3,4-DIHYDRO-1H-ISOQUINOLINE-2-CARBONYL)-1,2,3,4 TETRAHYDROISOQUINOLIN-6-YL]-1H-PYRROLE-3-CARBOXAMIDE DERIVATIVES, PHARMACEUTICAL COMPOSITIONS CONTAINING THEM AND THEIR USES AS PRO-APOPTOTIC AGENTS” (LES LABORATOIRES SERVIER, priority 2022, published 2025).

Molecules are shown by their SMILES.

Test [1] addresses BCL2 WT (Homo sapiens (Human), UniProt P10415). As to the kind of experiment: TR-FRET competitive binding assay, BCL2 WT. The following applies: Ki determined from IC50, read-out: TR_FRET EKI_Bcl2 WT. In short, it runs like this: (§1)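 Competitive TR-FRET displacement of fluorescein-PUMA peptide (2 or 20 nM) from 0.5 nM terbium-labelled N-terminal Halo-fusion BCL2 (1-207, wild type or mutant) or BCLXL (2-196), expressed in E. coli. Buffer 50 mM Hepes pH 7.5, 150 mM NaCl, 5% DMSO; 2 h at 23°C. 520/495 nm ratio fitted over 11 points for IC50, converted to Ki.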
(In general: In TR-FRET formats the signal depends on donor and acceptor labels being close together.)

For test [2], the target named is BCL2 G101V (Homo sapiens, UniProt P10415, G101V). As to the kind of experiment: TR-FRET competitive binding assay, BCL2 G101V. The note with it: BCL2 G101V; Ki determined from IC50; read-out: TR_FRET EKI_Bcl2 G101V. In short, it runs like this: as §1
Test [3] relates to BCL2 G101V. As to the kind of experiment: TR-FRET competitive binding assay, BCL2 G101V. More on the design: species or system human. The following applies: ratio Ki BCL2 G101V / Ki BCL2 WT. In short, it runs like this: as §1
Test [4] has as its target BCL2 D103Y (Homo sapiens, UniProt P10415, D103Y). As to the kind of experiment: TR-FRET competitive binding assay, BCL2 D103Y. The following applies: Ki determined from IC50, read-out: TR_FRET EKI_Bcl2 D103Y. In short, it runs like this:
as §1

In test [5] the target is BCL2 F104I (Homo sapiens, UniProt P10415, F104I). As to the kind of experiment: TR-FRET competitive binding assay, BCL2 F104I. The note with it: Ki determined from IC50, read-out: TR_FRET EKI_Bcl2 F104I. Summed up:
as §1

The target in test [6] is BCL2 D111A (Homo sapiens, UniProt P10415, D111A). As to the kind of experiment: TR-FRET competitive binding assay, BCL2 D111A. The note with it: Ki determined from IC50, read-out: TR_FRET EKI_Bcl2 D111A. In short, it runs like this: as §1
In test [7] the target is BCLXL WT (Homo sapiens (Human), UniProt Q07817). As to the kind of experiment: TR-FRET competitive binding assay, BCLXL WT. The following applies: for Ki: BCLXL WT, Ki determined from IC50, read-out: TR_FRET EKI BclxL; for TR_FRET EKI BCLxL/WT selectivty ratio: ratio Ki BCLxL / Ki BCL2 WT. Summed up:
as §1

Test [8] has as its system KMS-12-PE Bcl-2 WT. As to the kind of experiment: In vitro cytotoxicity CellTiter-Glo 48 h, KMS-12-PE Bcl-2 WT. The class given is cell-based. The following applies: Homo sapiens, KMS-12-PE, C50 = concentration needed to reach 50% of the cellular viability. Summed up:
(§2)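 KMS-12-PE myeloma cells were lentivirally transduced with wild-type or G101V-mutant Bcl-2 and sorted by TagRFP. They were exposed to compounds as 11-point dose responses for 48 h at 37 °C, 5% CO2. Viability was read by CellTiter-Glo ATP luminescence, and C50 was the concentration giving 50% viability.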
(In general: In ATP-based viability assays light output follows the ATP content of the culture.)

Test [9] deals with KMS-12-PE Bcl-2 G101V. As to the kind of experiment: In vitro cytotoxicity CellTiter-Glo 48 h, KMS-12-PE Bcl-2 G101V. The test is classed as cell-based. The note with it: for Ratio (G101V/WT): C50 KMS-12-PE Bcl-2 G101V over C50 KMS-12-PE Bcl-2 WT; for IC50: Homo sapiens, KMS-12-PE, 48 h, CellTiter-Glo, C50 = concentration needed to reach 50% of the cellular viability. In short, it runs like this:
as §2

BCLXL WT, sequence (Q07817 other isoform, or with tags, fused parts or gaps): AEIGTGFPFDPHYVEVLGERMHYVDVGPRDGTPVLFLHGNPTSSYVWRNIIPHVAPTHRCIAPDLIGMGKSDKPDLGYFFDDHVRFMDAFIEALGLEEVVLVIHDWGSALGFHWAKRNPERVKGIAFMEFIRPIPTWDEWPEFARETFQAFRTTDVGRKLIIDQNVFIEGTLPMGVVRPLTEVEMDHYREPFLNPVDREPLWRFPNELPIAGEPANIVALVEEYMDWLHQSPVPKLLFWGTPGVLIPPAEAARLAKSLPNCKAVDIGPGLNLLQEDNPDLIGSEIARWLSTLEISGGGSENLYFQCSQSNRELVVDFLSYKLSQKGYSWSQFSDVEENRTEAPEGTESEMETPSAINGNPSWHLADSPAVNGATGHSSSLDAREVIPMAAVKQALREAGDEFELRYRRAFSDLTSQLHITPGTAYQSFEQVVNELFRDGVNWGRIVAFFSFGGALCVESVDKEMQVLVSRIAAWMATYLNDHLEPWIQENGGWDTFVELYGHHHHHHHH

What is called IC50 is the concentration that inhibits the measured activity by half. `Cc1c(N(C(=O)c2cc(-c3cc4c(cc3C(=O)N3Cc5ccccc5C[C@H]3CN3CCCC[C@@H]3C)CN(C(=O)Cc3ccc(OCCN5CCOCC5)cc3F)CC4)n(C)c2C)c2ccc(O)cc2)cc(C#N)n1C` [Example 125, N-(5-cyano-1,2-dimethyl-1H-pyrrol-3-yl)-5-[2-(2-{2-fluoro-4-[2-(morpholin-4-yl)ethoxy]phenyl}acetyl)-7-[(3S)-3-{[(2S)-2-methylpiperidin-1-yl]methyl}-1,2,3,4-tetrahydroisoquinoline-2-carbonyl]-1,2,3,4-tetrahydroisoquinolin-6-yl]-N-(4-hydroxyphenyl)-1,2-dimethyl-1H-pyrrole-3-carboxamide]: the Ki was found to be 0.07 nM in test [1]; 0.4 nM in test [2]; 0.19 nM in test [4]; 0.17 nM in test [5]; 0.13 nM in [6]; 4.3 nM in test [7]. The “TR_FRET EKI G101V/WT selectivty ratio” value in test [3] came out at 5.4. Further, the “TR_FRET EKI BCLxL/WT selectivty ratio” value in test [7] was determined as 61.4. Besides, the IC50 worked out at 0.0036 µM in [8] and 0.0178 µM in [9]. In addition, in test [9], the “Ratio (G101V/WT)” value came to 4.94.
For `Cc1c(N(C(=O)c2cc(-c3cc4c(cc3C(=O)N3Cc5ccccc5C[C@H]3CN3CCC5(CC3)CC5)CN(C(=O)Cc3ccc(OCCN5CCOCC5)cc3F)CC4)n(C)c2C)c2ccc(O)cc2)cc(C#N)n1C` [Example 126, 5-{7-[(3S)-3-({6-azaspiro[2.5]octan-6-yl}methyl)-1,2,3,4-tetrahydroisoquinoline-2-carbonyl]-2-(2-{2-fluoro-4-[2-(morpholin-4-yl)ethoxy]phenyl}acetyl)-1,2,3,4-tetrahydroisoquinolin-6-yl}-N-(5-cyano-1,2-dimethyl-1H-pyrrol-3-yl)-N-(4-hydroxyphenyl)-1,2-dimethyl-1H-pyrrole-3-carboxamide], the Ki in test [1] amounted to 0.12 nM; in [2], 0.7 nM; in test [4], 0.37 nM; in [5], 0.49 nM; in test [6], 0.38 nM; in test [7], 7.7 nM. The “TR_FRET EKI G101V/WT selectivty ratio” value in test [3] came out at 5.4. Moreover, the “TR_FRET EKI BCLxL/WT selectivty ratio” value in test [7] is 64.2. Moreover, the figures for the IC50 in test [8] and in test [9] were 0.0048 µM and 0.0303 µM, respectively. The “Ratio (G101V/WT)” value in [9] amounted to 6.34.
Regarding `Cc1c(N(C(=O)c2cc(-c3cc4c(cc3C(=O)N3Cc5ccccc5C[C@H]3CN3CCCCC3)CN(C(=O)Cc3ccc(OCCN(C)CCF)cc3F)CC4)n(C)c2C)c2ccc(O)cc2)cc(C#N)n1C` [Example 134, N-(5-cyano-1,2-dimethyl-1H-pyrrol-3-yl)-5-{2-[2-(2-fluoro-4-{2-[(2-fluoroethyl)(methyl)amino]ethoxy}phenyl)acetyl]-7-[(3S)-3-[(piperidin-1-yl)methyl]-1,2,3,4-tetrahydroisoquinoline-2-carbonyl]-1,2,3,4-tetrahydroisoquinolin-6-yl}-N-(4-hydroxyphenyl)-1,2-dimethyl-1H-pyrrole-3-carboxamide], the Ki in [1] came out at 0.06 nM; in test [2] it was 0.3 nM; in [4] it was 0.18 nM; in [5] it was 0.33 nM; in [6], 0.17 nM; in [7] it was 2.6 nM. Further, in [3], the “TR_FRET EKI G101V/WT selectivty ratio” value was determined as 5.8. For the same molecule, the “TR_FRET EKI BCLxL/WT selectivty ratio” value in test [7] is 45.6. Further, the half-maximal inhibitory concentration (IC50) in test [8] worked out at 0.0058 µM; in [9], 0.0265 µM. Besides, the “Ratio (G101V/WT)” value in test [9] was 4.6.
For `Cc1c(N(C(=O)c2cc(-c3cc4c(cc3C(=O)N3Cc5ccccc5C[C@H]3CN3CCCCC3)CN(C(=O)Cc3ccc(OCCN5CCOCC5)cc3F)CC4)n3ccccc23)c2ccc(O)cc2)cc(C#N)n1C` [Example 136, N-(5-cyano-1,2-dimethyl-pyrrol-3-yl)-3-[2-[2-[2-fluoro-4-(2-morpholinoethoxy)phenyl]acetyl]-7-[(3S)-3-(1-piperidylmethyl)-3,4-dihydro-1H-isoquinoline-2-carbonyl]-3,4-dihydro-1H-isoquinolin-6-yl]-N-(4-hydroxyphenyl)indolizine-1-carboxamide], the Ki turned out to be 0.13 nM in test [1]; 0.6 nM in [2]; 0.32 nM in [4]; 0.17 nM in test [5]; 0.35 nM in test [6]; 2.3 nM in test [7]. Further, the “TR_FRET EKI G101V/WT selectivty ratio” value in test [3] is on record as 4.2. The “TR_FRET EKI BCLxL/WT selectivty ratio” value in [7] is on record as 17.7. In addition, the IC50 in test [8] turned out to be 0.0037 µM; in test [9], 0.0118 µM. Moreover, the “Ratio (G101V/WT)” value in test [9] is 3.22.
As to `Cc1c(N(C(=O)c2cc(-c3cc4c(cc3C(=O)N3Cc5ccccc5C[C@H]3CN3CC5(CC5)C3)CN(C(=O)Cc3ccc(OCCN5CCOCC5)cc3F)CC4)n(C)c2C)c2ccc(O)cc2)cc(C#N)n1C` [Example 145, 5-{7-[(3S)-3-({5-azaspiro[2.3]hexan-5-yl}methyl)-1,2,3,4-tetrahydroisoquinoline-2-carbonyl]-2-(2-{2-fluoro-4-[2-(morpholin-4-yl)ethoxy]phenyl}acetyl)-1,2,3,4-tetrahydroisoquinolin-6-yl}-N-(5-cyano-1,2-dimethyl-1H-pyrrol-3-yl)-N-(4-hydroxyphenyl)-1,2-dimethyl-1H-pyrrole-3-carboxamide], the Ki in test [1] amounted to 0.03 nM; in test [2], 0.2 nM; in test [4], 0.11 nM; in test [5], 0.14 nM; in test [6], 0.07 nM; in test [7], 1.1 nM. The “TR_FRET EKI G101V/WT selectivty ratio” value in [3] is 5.4. In addition, the “TR_FRET EKI BCLxL/WT selectivty ratio” value in test [7] came to 39.3. For the same molecule, the 50% inhibitory concentration (IC50) came out at 0.0295 µM in test [8] and 0.154 µM in test [9]. Besides, in test [9], the “Ratio (G101V/WT)” value is 5.2203.
Consider `Cc1c(N(C(=O)c2cc(-c3cc4c(cc3C(=O)N3Cc5ccccc5C[C@H]3CN3CCC(C)(C)C3)CN(C(=O)Cc3ccc(OCCN5CCOCC5)cc3F)CC4)n(C)c2C)c2ccc(O)cc2)cc(C#N)n1C` [Example 146, N-(5-cyano-1,2-dimethylpyrrol-3-yl)-5-(7-{[(3S)-3-[(3,3-dimethylpyrrolidin-1-yl)methyl]-3,4-dihydro-1H-isoquinolin-2-yl]carbonyl}-2-(2-{2-fluoro-4-[2-(morpholin-4-yl)ethoxy]phenyl}acetyl)-3,4-dihydro-1H-isoquinolin-6-yl)-N-(4-hydroxyphenyl)-1,2-dimethylpyrrole-3-carboxamide], for which the Ki in [1] turned out to be 0.04 nM; in test [2], 0.3 nM; in [4] it was 0.12 nM; in test [5], 0.27 nM; in test [6] it was 0.15 nM; in test [7], 3.5 nM. For the same molecule, the “TR_FRET EKI G101V/WT selectivty ratio” value in test [3] came to 7.2. The “TR_FRET EKI BCLxL/WT selectivty ratio” value in test [7] came out at 81.4. Also, the IC50 came to 0.006 µM in [8] and 0.0349 µM in test [9]. Besides, the “Ratio (G101V/WT)” value in [9] was 5.8167.
`Cc1c(N(C(=O)c2cc(-c3cc4c(cc3C(=O)N3Cc5ccccc5C[C@H]3CN3CCCCC3)CN(C(=O)Cc3ccc(OCCN5CCOCC5(C)C)cc3)CC4)n(C)c2C)c2ccc(O)cc2)cc(C#N)n1C` [Example 148, N-(5-cyano-1,2-dimethylpyrrol-3-yl)-5-[2-(2-{4-[2-(3,3-dimethylmorpholin-4-yl)ethoxy]phenyl}acetyl)-7-{[(3S)-3-(piperidin-1-ylmethyl)-3,4-dihydro-1H-isoquinolin-2-yl]carbonyl}-3,4-dihydro-1H-isoquinolin-6-yl]-N-(4-hydroxyphenyl)-1,2-dimethylpyrrole-3-carboxamide]: the Ki stood at 0.06 nM in test [1]; 0.3 nM in [2]; 0.18 nM in test [4]; 0.29 nM in test [5]; 0.15 nM in test [6]; 1.5 nM in [7]. For the same molecule, in test [3], the “TR_FRET EKI G101V/WT selectivty ratio” value is recorded as 4.2. For the same molecule, the “TR_FRET EKI BCLxL/WT selectivty ratio” value in test [7] is listed as 25.0. Besides, the values for the IC50 in [8] and in test [9] were 0.007 µM and 0.0345 µM, respectively. For the same molecule, the “Ratio (G101V/WT)” value in [9] is listed as 4.9286.
